“Also recorded” adds a separate entry of the source. Where no end group is shown, it is not given here. [ ]: non-standard residue; d: D form. Phe(4-F) = N[C@@H](Cc1ccc(F)cc1)C(=O)O
Tests used:
GR:Hsp90 = experiment: GR dissociation from Hsp90 in 786-O cells; type: cell-based
Protocol: (§1) Human embryonic kidney (HEK293) and 786-O cells were acquired from the American Type Culture Collection (ATCC). HEK293 cells were grown in Dulbecco's Modified Eagle Medium (DMEM, Millipore-Sigma) and 786-O cells were grown in Roswell Park Memorial Institute (RPMI-1640, Millipore-Sigma) medium supplemented with 10% fetal bovine serum (FBS, Millipore-Sigma) in a CellQ incubator (Panasonic Healthcare) at 37° C. in 5% CO2.
(§2) Cultured cells were seeded 24 h prior to treatment. Peptides were added to cells at 50% confluency at the indicated concentrations and incubated for 24 h, followed by protein extraction as described below.
(§3) Protein extraction from mammalian cells was carried out using methods previously described. See Woodford et al., Cell Reports, 14, 872-884 (2016). For immunoprecipitation, protein lysates were incubated with Hsp90 antibody for 2 h followed by incubation with protein G agarose (Qiagen) for 2 h at 4° C. Immunopellets were washed 4 times with fresh lysis buffer (20 mM Tris (pH7.4), 100 mM NaCl, 1 mM MgCl2, 0.1% NP40, protease inhibitor cocktail (Roche), and PhosSTOP (Roche)) and eluted with 5× Laemmli buffer. Precipitated proteins were separated by SDS-PAGE and transferred to nitrocellulose membranes. Co-immunoprecipitated proteins were detected by immunoblotting with the indicated antibodies, diluted in 5% non-fat dry milk reconstituted in TBST.

786-O cells = experiment: Apoptosis by cleaved caspase-3 immunoblot in 786-O cells; type: cell-based; settings: 786-O clear cell renal cell carcinoma cell line
Protocol: as §1, §2, §3

c-Src = experiment: Immunoblot of unrelated client c-Src in HEK293 cells; type: cell-based, human; settings: 10 μM, 36 hours, selectivity control
Protocol: as §1
(§4) Cultured cells were seeded 24 h prior to treatment. […]
as §3

[1] = target: Human Serum Albumin (HSA) (Homo sapiens, UniProt P02768); experiment: 19F NMR control for non-specific binding to HSA; settings: 40 mM A01, A02 with 10 mM HSA
Protocol: (§5) All the NMR experiments have been recorded at 298° K with a Bruker FT NMR Avance III 600-MHz spectrometer equipped with a 5-mm CryoProbe™ QCI^1H/^19F-^13C/^15N-D quadruple resonance, a shielded z-gradient coil, and the automatic sample handling system such as a SAMPLEJET™ brand sampling system with temperature control.
(§6) ^19F NMR experiments are a well-recognized approach to study the interaction between small molecules or peptides and proteins. […] This is due to the large dynamic range defined as the difference of the NMR measured response in the free and protein-bound states. ^19F R2 filter NMR experiments are among the most sensitive techniques for weak binding detection. See Dalvit et al., Journal of American Chemical Society, 125, 7696-7703 (2003). The transverse relaxation rate R2 is a very sensitive parameter for these studies, due to the large Chemical Shift Anisotropy (CSA) of ^19F nucleus and to the large exchange contribution See Dalvit et al., Journal of American Chemical Society, 125, 7696-7703 (2003); the compounds/peptides that interact with the receptor will show a broadening and intensity reduction in their ^19F NMR signal in presence of the protein
(§7) The 5 mM stock solution peptides were prepared in 100% in DMSOd6. Solubility and purity of the peptides in PBS buffer pH 7.4, 10% D2O (for the lock signal) were checked by ^19F and ^1H NMR spectroscopy. 1D ^19F NMR experiments were recorded with proton decoupling with the Waltz-16 scheme during the acquisition period with an acquisition time of 0.95 s, a relaxation delay of 30 s. whereas 1D version of the NOESY (nuclear Overhauser effect spectroscopy) pulse sequence with H2O signal presaturation, a mixing time of 10 ms and a relaxation delay of 30 s was used for ^1H NMR experiments.
(§8) For the binding studies R2 filter experiments were recorded with the Carr-Purcell-Meibom-Gill scheme with a time interval of 23.5 ms between the 180° pulses with a loop of 2, an acquisition time of 0.95 s a D1 of 5 s and a number of scans of 512. All the ^19F chemical shifts are referenced to the CFCl3 signal in water.

Hsp90α-FLAG = Hsp90α-FLAG (Homo sapiens, UniProt P07900); experiment: Biotinylated peptide streptavidin pulldown of Hsp90α; type: binding; settings: Hsp90α vs Hsp90β; biotinylated peptide pulldown
Protocol: Total cell lysates prepared as described above were incubated with the indicated amounts of biotinylated peptide at 4° C. for 1 h. Streptavidin agarose beads (ThermoScientific) were added and incubated 1 additional hour with gentle rotation. Bound Hsp90 was detected by immunoblotting as described herein.

Cdk4 = experiment: Immunoblot of unrelated client Cdk4 in HEK293 cells; type: cell-based, human; settings: 10 μM, 36 hours, selectivity control
Protocol: as §1, §4, §3

full length human Hsp90 = experiment: 19F NMR R2 filter binding to Hsp90; design: 19F NMR signal change in presence of Hsp90 (binding): dose or concentration left out as unconfirmed; settings: for 19F NMR signal change in presence of Hsp90 (binding): 19F R2 filter, peptides tested individually, A01
Protocol: as §5, §6, §7, §8

c-Abl-Hsp90 interaction = experiment: Hsp90 immunoprecipitation, c-Abl association in HEK293 cells; type: cell-based, human; settings: 10 μM, 36 hours, IP of endogenous Hsp90
Protocol: as §1, §4, §3

c-Abl = c-Abl protein level by immunoblot in treated HEK293 cells; type: cell-based, human; settings: 10 μM A01 or A02 with and without TAT, 36 hours
Protocol: as §1, §4, §3

Akt = experiment: Immunoblot of unrelated client Akt in HEK293 cells; type: cell-based, human; settings: 10 μM, 36 hours, selectivity control
Protocol: as §1, §4, §3

Aha1-Hsp90 complex = experiment: Hsp90 immunoprecipitation, Aha1-Hsp90 complex in HEK293 cells; type: cell-based, human; settings: 10 μM, 36 hours
Protocol: as §1, §4, §3

Cdc37 = target: T1, Cdc37 (Homo sapiens, UniProt Q16543); experiment: 19F NMR R2 filter binding to Cdc37; design: dose or concentration left out as unconfirmed
T1 sequence (Q16543 1-378): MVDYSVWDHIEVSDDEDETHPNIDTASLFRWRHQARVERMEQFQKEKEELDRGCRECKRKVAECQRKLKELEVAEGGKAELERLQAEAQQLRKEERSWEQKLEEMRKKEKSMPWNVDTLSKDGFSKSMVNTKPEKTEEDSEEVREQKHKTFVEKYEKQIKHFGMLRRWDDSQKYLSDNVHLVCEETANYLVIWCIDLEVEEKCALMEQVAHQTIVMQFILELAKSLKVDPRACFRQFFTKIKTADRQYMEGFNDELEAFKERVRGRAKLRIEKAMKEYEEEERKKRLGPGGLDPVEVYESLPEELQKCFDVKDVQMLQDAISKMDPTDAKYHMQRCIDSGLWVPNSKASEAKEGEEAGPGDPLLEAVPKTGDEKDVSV
Protocol: as §5, §6, §7, §8

Aha1 = Aha1 (Homo sapiens, UniProt O95433); experiment: 19F NMR R2 filter binding to Aha1; settings: cAbl peptides at 10 mM
Chain of Aha1 (O95433 whole entry, species assumed): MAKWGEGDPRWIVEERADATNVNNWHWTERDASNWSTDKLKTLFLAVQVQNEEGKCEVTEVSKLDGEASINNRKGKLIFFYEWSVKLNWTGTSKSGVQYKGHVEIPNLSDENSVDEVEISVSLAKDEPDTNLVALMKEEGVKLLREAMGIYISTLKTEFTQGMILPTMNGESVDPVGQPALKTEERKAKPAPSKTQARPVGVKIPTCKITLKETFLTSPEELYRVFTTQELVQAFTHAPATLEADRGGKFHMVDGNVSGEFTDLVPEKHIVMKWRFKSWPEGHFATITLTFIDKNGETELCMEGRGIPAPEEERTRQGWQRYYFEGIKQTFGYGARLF
Protocol: as §5
(§9) ^19F NMR experiments are a well-recognized approach to study the interaction between small molecules or peptides and proteins. […] This is due to the large dynamic range defined as the difference of the NMR measured response in the free and protein-bound states. ^19F R2 filter NMR experiments are among the most sensitive techniques for weak binding detection. […]
as §7, with “Solubility and purity of the peptides in PBS buffer pH 7.4, 10% D2O (for the lock signal) were checked by ^19F and ^1H NMR spectroscopy.” left out
(§10) For the binding studies R2 filter experiments were recorded with the Carr-Purcell-Meibom-Gill scheme with a time interval of 23.5 ms between the 180° pulses with a loop of 2, an acquisition time of 0.95 s a D1 of 5 s and a number of scans of 512. […]

[2] = system: Hsp90 chaperone complexes (Hsp90, Cdc37, Aha1); experiment: 19F NMR binding to proteins of the Hsp90 chaperone system, single and mixed peptides
Protocol: as §5, §9
as §7, with “Solubility and purity of the peptides in PBS buffer pH 7.4, 10% D2O (for the lock signal) were checked by ^19F and ^1H NMR spectroscopy.” left out
as §10

## TLPCGGTWRIMTGIE F(F)PEMLA (TLPCGGTWRIMTGIE[Phe(4-F)]PEMLA) [GR-01, glucocorticoid receptor mimic peptide]
GR:Hsp90
  GR dissociation from Hsp90: showed GR dissociation from Hsp90

## GEMGKGGKGRVPYPGMVNREVLDQVERGF(F)RM (GEMGKGGKGRVPYPGMVNREVLDQVERG[Phe(4-F)]RM) [c-Src02, c-Src mimic peptide]
786-O cells
  apoptosis (elevation of cleaved caspase-3): except c-Src02, induced apoptosis

## F(F)GGSPYPGIDLSQVYELLEK ([Phe(4-F)]GGSPYPGIDLSQVYELLEK) [A02]
c-Src
  c-Src stability or activity: neither the related kinase c-Src nor the client kinases Cdk4 or Akt showed a defect in stability or activity
[1]
  binding interaction with HSA by 19F NMR: neither A01 nor A02 showed binding interaction with HSA
[1]; listed as AblO2
  binding interaction with HSA by 19F NMR: do not interact with HSA
Hsp90α-FLAG
  Hsp90 isoform specificity: neither peptide demonstrates isoform specificity
Cdk4
  Cdk4 stability or activity: neither the related kinase c-Src nor the client kinases Cdk4 or Akt showed a defect in stability or activity
Full length human Hsp90; 19F NMR, peptides mixed
  binding to Hsp90 when A01 and A02 are mixed: continue to bind to Hsp90 even when they are mixed
Full length human Hsp90
  19F NMR signal change in presence of Hsp90 (binding): decrease in the presence of Hsp90, indicating peptide-protein binding
c-Abl-Hsp90 interaction
  dissociation of c-Abl from Hsp90: dissociation of c-Abl from Hsp90
c-Abl
  c-Abl protein levels: decrease of c-Abl protein levels
Akt
  Akt stability or activity: neither the related kinase c-Src nor the client kinases Cdk4 or Akt showed a defect in stability or activity
Aha1-Hsp90 complex
  Aha1-Hsp90 complex formation: decreased Aha1-Hsp90 complex formation

## GYSTKPQLAGGGNVTAPTPQGF(F)QHSGS (GYSTKPQLAGGGNVTAPTPQG[Phe(4-F)]QHSGS) [B-Raf-01]
[1]
  binding interaction with HSA by 19F NMR: no interactions were detected
[1]; listed as Braf01-pep
  binding interaction with HSA by 19F NMR: do not interact with HSA
Full length human Hsp90
  19F NMR signal change in presence of Hsp90 (binding): no or very weak interaction

## YAGYDSSVPDSTWRIMTTLNMGGF(F)PEMLA (YAGYDSSVPDSTWRIMTTLNMGG[Phe(4-F)]PEMLA) [GR-02, glucocorticoid receptor mimic peptide]
Cdc37
  binding to Cdc37 by 19F NMR: highest effect on Cdc37; also recorded: binding effect is higher on CDC37
GR:Hsp90
  GR dissociation from Hsp90: showed GR dissociation from Hsp90
Full length human Hsp90
  19F NMR signal change in presence of Hsp90 (binding): bound to all of the tested proteins
Aha1
  binding to Aha1 by 19F NMR: bound to all of the tested proteins
[2]; Hsp90, Cdc37, Aha1
  binding to members of the Hsp90 chaperone complex by 19F NMR: binds to all the protein
[2]; peptides mixed together and added to protein solution
  competition among peptides when mixed (19F NMR signal variation vs single peptide): No significant difference
